Converted amounts (≈) assume the structure as drawn.
What was measured:
Trypanosoma brucei = test: Anti-trypanosomal activity, inhibition of T. brucei growth (ATP-bioluminescence luciferase assay); assay type: cell-based; conditions: read-out: IC50 against Trypanosoma brucei
Method: The antiparasitic activities of exemplary compounds described here was studied using the anti-trypanosomal activity protocol described in: Rapp M, et al. J Med Chem 2006; 49:2096-102. […] FIG. 1 summarizes the compound inhibition of T. brucei growth. It is seen that compounds of the invention are useful in inhibiting T. brucei growth.
Culturing of Parasites. The bloodstream form of Trypanosoma brucei 427 strain was maintained under the standard cell culture conditions (37° C., 5% CO2). The parasites were grown in complete HMI-9 medium containing 10% FBS, 10% Serum Plus and 1× Penicillin/Streptomycin. (Angew. Chem. Int. Ed. Engl. 2003, 42, 5274-5293).
Luciferase Assay. Luciferase assay was used to measure ATP-bioluminescence in T. brucei cultured in 96-well plates at 37° C. for 48 hours. Parasites were diluted to 1.0×10^5 cells/mL in complete HMI-9 medium. One hundred microliters (100 μL) of the diluted parasites were aliquoted into sterile 96-well flat white opaque culture plates (Greiner). Each compound was serially diluted from 10 μM to 0.1 μM in DMSO and then mixed in the appropriate wells containing parasites. The treated parasites were then incubated for 48 hours at 37° C. with 5% CO2 before monitoring viability. To measure the viability of the parasites after treatment with each compound, the parasites were lysed in the wells by adding 100 μL of CellTiter-Glo™ (Promega). After lysis, the ATP bioluminescence of the 96-well plates was measured with a SpectraFluor Plus multidetection plate reader (Tecan).

[1] = system: T47D human breast cancer cells; test: Soft agar colony growth, T47D cells; assay type: cell-based; conditions: for effect on breast cancer cell colony growth: Table 2
Method: Base agar plates were prepared containing 0.8% agar and 0.4% agar in Ham's F12. Cells (5×10^4 cells/33 mm^2 well) were suspended in 100 μl of Ham's F12 with 0.4% agar and plated. These plates were maintained at 37° C. for 7 days and examined for the presence of colonies. Individual colonies of 50 μm or greater were examined. T47D cells were treated with 1, 10 and 100 nM PQ1 and SA (succinic acid) as a solvent control. Individual colonies of 50 μm or greater were examined. Statistical significance, *p<0.05, of at least three experiments
FIG. 3(A) MDA-MB-453 and (B) T47D human breast cancer cells were treated with 10 μM of various quinolines for 7 days. Base agar plates were prepared containing 0.8% agar and 0.4% agar in Ham's F12. Cells (5×10^4 cells/33 mm well) were suspended in 100 μl of Ham's F12 with 0.4% agar and plated. These plates were maintained at 37° C. for 7 days and examined for the presence of colonies. Individual colonies of 40 μm or greater were examined. […] However, PQ3 caused a 2.3-fold increase in colony growth in MDA-MB-453 cells and PQ2 caused a 2.6-fold increase in T47D colony growth compared to DMSO. FIGS. 7 and 8 show MDA-MB-453 and T47D colony growth for various concentrations of PQ1 and SA tested for 7 days. The procedures are generally as described above. The cell colony growth decreased using 10 and 100 nM PQ1 for both cell types.
(§1) Colony Growth Assay: T47D human breast cancer cells were treated with PQ1. Base agar plates were prepared containing 0.8% agar and 0.4% agar in Ham's F12. Cells (5×10^4 cells/33 mm2 well) were suspended in 100 μl of Ham's F12 with 0.4% agar and plated. These plates were maintained at 37° C. for 7 days and examined for the presence of colonies. Individual colonies of 40 um or greater were examined.
Various oncogenes (e.g. ras, raf, neu, src, mos) down-regulate GJIC while several tumor suppressor genes can up-regulate GJIC. […] Cells were grown in soft agar to assess their capacity for anchorage-independent growth, which is a key feature of cell transformation due to the importance of cell-cell and cell-matrix based tumor suppression. MEC and T47D cells were treated with 10, 100, 1000, and 10000 nM PQ1 for 7 days. A graphical presentation of three experiment results is presented in log scale of PQ1 concentration. […] A 100 nM PQ1 inhibits 66% of colony growth compared to controls, without PQ1 treatment or 100 nM succinic acid.
as §1, with “Using Soft Agar. Cells” for “Assay: T47D human breast cancer cells”, “0, 10, 100, 200 and 500 nM PQ1 for 7 days.” for “PQ1.”, “mm^2” for “mm2”, “50 μm” for “40 um”

MCF-7 = test: Gap junction intercellular communication, MCF-7 cells; assay type: cell-based, human; conditions: Table 1
ZR75 = test: Gap junction intercellular communication, ZR75 cells; assay type: cell-based, human; conditions: Table 1
HT29 = test: Gap junction intercellular communication, HT29 colon cancer cells; assay type: cell-based; conditions: Table 3

| Structure (SMILES) | IC50 (Trypanosoma brucei) [µg/mL] | colony growth attenuation ([1]; 10 μM, 7 days, compared to control) | colony growth compared to control ([1]; 10, 100, 1000 and 10000 nM, 7 days) | cell colony growth ([1]; 10 and 100 nM, 7 days) | inhibition at 0.1 µM ([1]; Homo sapiens, 168 h, 100 nM, 7 days, compared to controls) [%] | effect on breast cancer cell colony growth [1] | effect on gap junction intercellular communication (MCF-7) | effect on gap junction intercellular communication (ZR75) | effect on gap junction intercellular communication (HT29) | effect on colony growth ([1]; 10 μM, 7 days) |
| --- | --- | --- | --- | --- | --- | --- | --- | --- | --- | --- |
| COc1cc(NCCCN)c2nccc(C)c2c1Oc1cccc(C(F)(F)F)c1.O=C(O)CCC(=O)O [PQ1, 6-Methoxy-8-[(3-aminopropyl)amino]-4-methyl-5-(3-trifluoromethylphenyloxy) quinoline succinic acid] | 0.34 | 80-95% | significant inhibition | decreased | 66 | Decrease | No effect | Decrease | No effect | – |
| COc1cc(N)c2nccc(C)c2c1Oc1cccc(C(F)(F)F)c1 [PQ3, 8-Amino-6-methoxy-4-methyl-5-(3-trifluoromethylphenyloxy)quinoline] | 1.08 (≈ 3.11 µM) | – | – | – | – | Decrease | Decrease | No effect | Increase | inhibitory effect |

Source: patent publication US8809368B2, “Compounds affecting gap junction activity” (Kansas State University Research Foundation, priority 2006, dated 2014)
